Experimental data published in PMC13439108, “An antibody–drug conjugate active against antibiotic-resistant Neisseria gonorrhoeae” (Proceedings of the National Academy of Sciences of the …, 2026).
Where a SMILES comes first, the peptide text is derived from it. [ ]: non-standard residue; d: D form. The star is where a group is joined. d(aIle) = CC[C@H](C)[C@@H](N)C(=O)O; dDab = NCC[C@@H](N)C(=O)O; Octanoyl = CCCCCCCC(=O)*; Dab = NCC[C@H](N)C(=O)O; AEEA = NCCOCCOCC(=O)O

Assays:
N. gonorrhoeae FA1090 = experiment: Time-to-kill assay; type: cell-based, Neisseria gonorrhoeae; conditions: FA1090, 50 μg mL^−1 of the AMP, GW medium; n = 3
Experimental: (§1) Fig. 4. […] (C) Time-to-kill curve analysis with ADCs protocol. N. gonorrhoeae were grown for 24 h prior to harvesting supernatant with or without IgAP, wild-type, and ΔigAP, respectively. Supernatant was dialyzed into fresh media prior to inoculating with respective N. gonorrhoeae strains. After 3 h growth, ADCs or peptides were added, and CFU/mL was calculated every 30 min for 4 h. […] All data shown are the mean ± SD of CFU/ml (n = 3).
(§2) 37°C, in 5% CO2 then 10 μl aliquots plated onto GCB agar. The MIC was defined as the lowest concentration of an antimicrobial that prevented bacterial growth.
(§3) Determination of N. gonorrhoeae resistance to Oct-TriA1
(§4) Single colonies of N. gonorrhoeae FA1090 were inoculated into 2 mL of FB media supplemented with 1% Vitox (Oxoid) and grown overnight. After 24 hours, 240 µl of a 1/ 5,000 dilution of FA1090 in 2x FB was added to a 48-well plate containing 2-fold dilutions of either Oct-TriA1-c (final concentration, 12.5 µg/ml to 0.2 µg/ml) or ciprofloxacin (final concentration, 16.4 to 0.001 µg/ml) in a total volume of 480
(§5) µl. Plates were incubated at 37 °C, 5% CO2 with shaking (180 rpm). After 24 hours, ODA600 of each well […]
(§6) Peptide concentrations for ADCs were calculated from the antibody concentration, the drug-to-antibody ratio (DAR), and the peptide molecular weight using the following formula: […]

[1] = system: N. gonorrhoeae G97687 (MDR strain); experiment: Time-to-kill assay; type: cell-based, Neisseria gonorrhoeae; conditions: G97687, peptide 50 μg mL^−1, GW medium; n = 3
Experimental: as §1, §2, §3, §4, §5, §6

human erythrocytes = experiment: Hemolysis of human erythrocytes; type: cell-based
Experimental: For hemolysis, whole human blood (1 ml; K2EDTA; Cambridge Bioscience) was washed in PBS then 0.5% added to an equal volume of peptides or ADCs in 96-well V-bottomed polypropylene plates and incubated at 37°C for 1 hr. Cells were pelleted at 1,000 × g for 10 min and the absorbance at OD415 measured. Positive (melittin, 2.5 µM, Merck Life Science) and negative (PBS) controls were normalised as 100 and 0% hemolysis, respectively. […]

HK-2 cells = experiment: LDH release cytotoxicity; type: cell-based, human; conditions: n = 3
Experimental: HK-2 cells (CRL-2190™, Americab Type Culutre Collection (ATCC)), a proximal renal tubule cell(7), and End1/E6E7 (CRL-2615™, ATCC) upper cervical epithelial cells(8) were cultured in Keratinocyte Serum Free Medium (Invitrogen, Life Technologies Ltd.) with human recombinant EGF (5 ng ml-1) and bovine pituitary extract (0.05 mg ml−1) at 37°C in 5% CO2. Cells were seeded in 96-well plates (Corning, Polystyrene) at a density of 2 × 10^4 cells/well 24 hr prior; Triton-X-100 (0.1%) and Digitonin (30 μg ml−1) were used as controls. Lactate dehydrogenase (LDH) release was measured using the Biovision kit; the OD490 was assessed in a SpectraMax M5 plate reader. […]

For CCCCCCCC(=O)N[C@@H](C(=O)N[C@H](CCN)C(=O)NCC(=O)N[C@H](CO)C(=O)N[C@H](Cc1c[nH]c2ccccc12)C(=O)N[C@@H](CO)C(=O)N[C@@H](CCN)C(=O)N[C@H](CCN)C(=O)N[C@@H](Cc1ccccc1)C(=O)N[C@@H](CCC(=O)O)C(=O)N[C@H](C(=O)N[C@@H](C(=O)N[C@@H](C)C(=O)NCCOCCOCC(=O)N[C@@H](CC(C)C)C(=O)N1CCC[C@H]1C(=O)N[C@@H](CCCNC(=N)N)C(=O)N1CCC[C@H]1C(=O)N1CCC[C@H]1C(=O)O)[C@@H](C)CC)C(C)C)C(C)C [Oct-TriA1-c] (Octanoyl-[dV][dDab]G[dS][dW]S[Dab][dDab]FEV[d(aIle)]A[AEEA]LPRPP-OH), the “time to undetectable survival” value (N. gonorrhoeae FA1090) was 60 min, the “time to no survival” value [1] was 180 min and the “fold reduced hemolytic activity” value (human erythrocytes; compared with unmodified Oct-TriA1) was greater than 25 fold. The “Hemolysis (HC50)” value (human erythrocytes; concentration of peptide or ADC that lyses 50% of erythrocytes, washed human blood 0.5%, 37°C, 1 hr, OD415, melittin 2.5 µM = 100%, PBS = 0%, n = 3) was >1,000 μg mL^−1, the HC50 (human erythrocytes; human erythrocytes, 37°C, 1 hr, OD415) was greater than 1 mg/mL and the “LDH (EC50) 4 h” value (HK-2 cells; 2 × 10^4 cells/well, LDH release OD490, 4 h) was 86.42 µg/mL. The “LDH (EC50) 24 h” value (HK-2 cells; LDH release OD490, 24 h) was 57.71 µg/mL and the “LDH (EC50) 48 h” value (HK-2 cells; LDH release OD490, 48 h) was 50.03 µg/mL.
